Changes are numbered by the printed parent chain. Names may count otherwise.

The values that follow come from article PMC8436250 (Nature structural & molecular biology, 2019).

The target in data set [1] is T1, ATP-citrate lyase (ACLY) (Homo sapiens, UniProt P53396).
T1 sequence (P53396 1-1101): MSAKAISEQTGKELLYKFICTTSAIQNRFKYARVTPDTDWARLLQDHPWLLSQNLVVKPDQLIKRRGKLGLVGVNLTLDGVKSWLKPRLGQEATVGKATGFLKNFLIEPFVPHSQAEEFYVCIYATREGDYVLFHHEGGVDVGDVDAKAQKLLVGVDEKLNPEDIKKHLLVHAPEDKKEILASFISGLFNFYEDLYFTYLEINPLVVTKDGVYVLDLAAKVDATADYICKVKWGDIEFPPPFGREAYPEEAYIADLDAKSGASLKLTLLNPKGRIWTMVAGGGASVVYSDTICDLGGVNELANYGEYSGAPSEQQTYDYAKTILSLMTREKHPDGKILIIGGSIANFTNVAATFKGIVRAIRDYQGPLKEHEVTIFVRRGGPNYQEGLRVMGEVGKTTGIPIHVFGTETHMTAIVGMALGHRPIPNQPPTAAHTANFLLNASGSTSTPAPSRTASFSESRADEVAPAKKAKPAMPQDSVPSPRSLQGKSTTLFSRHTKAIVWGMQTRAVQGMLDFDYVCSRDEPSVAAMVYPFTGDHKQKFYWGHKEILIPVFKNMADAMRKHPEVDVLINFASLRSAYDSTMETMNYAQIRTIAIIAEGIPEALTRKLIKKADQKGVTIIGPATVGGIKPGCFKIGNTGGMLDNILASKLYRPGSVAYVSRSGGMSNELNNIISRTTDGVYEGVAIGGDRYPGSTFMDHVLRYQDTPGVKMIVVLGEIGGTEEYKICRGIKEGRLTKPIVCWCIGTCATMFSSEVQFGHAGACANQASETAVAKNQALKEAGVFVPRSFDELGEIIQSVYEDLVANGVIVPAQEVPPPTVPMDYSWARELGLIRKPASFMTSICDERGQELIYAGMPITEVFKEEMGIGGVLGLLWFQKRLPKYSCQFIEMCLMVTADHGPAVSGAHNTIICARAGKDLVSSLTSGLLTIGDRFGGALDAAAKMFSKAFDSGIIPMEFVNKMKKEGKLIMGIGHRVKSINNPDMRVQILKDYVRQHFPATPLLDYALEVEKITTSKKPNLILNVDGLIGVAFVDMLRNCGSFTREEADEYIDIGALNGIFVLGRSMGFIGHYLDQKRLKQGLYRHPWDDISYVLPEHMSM
Description: cryo-EM structure. The format is binding.

The target in data set [2] is T1, ATP-citrate lyase (ACLY). Description: cryo-EM structure. The format is binding. The source holds these as a separate data set.
Data set [3] addresses T1, ATP-citrate lyase (ACLY). Description: cryo-EM structure. It is filed as binding. The source holds these as a separate data set.
Data set [4] deals with T1, ATP-citrate lyase (ACLY). The data set can be described thus: steady-state intrinsic fluorescence titration, one-site fit. The format is binding.
Data set [5] has as its target T2, ATP-citrate lyase (ACLY) (Homo sapiens, UniProt P53396, E599Q).
T2 sequence (P53396 1-1101 E599Q): T1 sequence (P53396 1-1101) with E599Q
The data set can be described thus: cryo-EM structure. It is filed as binding.

The target in data set [6] is T3, ATP-citrate lyase (ACLY), full length human, wild type (human), P53396.
T3 chain: T1 sequence (P53396 1-1101)
The data set can be described thus: cryo-EM structure. As to conditions: remark: other sources report otherwise.

The data set “cryo-EM structure” deals with the molecule itself. The data set can be described thus: cryo-EM structure.

On to `CC(=O)SCCNC(=O)CCNC(=O)[C@H](O)C(C)(C)COP(=O)(O)OP(=O)(O)OC[C@H]1O[C@@H](n2cnc3c(N)ncnc32)[C@H](O)[C@@H]1OP(=O)(O)O` [acetyl-CoA], for which the “cryo-EM structure (3.1 Å, D2) with OAA; DSF stabilization” value at ATP-citrate lyase (ACLY) [1] is “acetyl-CoA occupied the same binding site as CoA and was also stabilized by the same basic residues, R576 and K964”.
For the molecule `CC(C)(COP(=O)(O)OP(=O)(O)OC[C@H]1O[C@@H](n2cnc3c(N)ncnc32)[C@H](O)[C@@H]1OP(=O)(O)O)[C@@H](O)C(=O)NCCC(=O)NCCS` [CoA, Coenzyme A], at ATP-citrate lyase (ACLY) [2], the “cryo-EM structure (3.0 Å, D2)” value is “CoA binds at the interface between the CSH and ASH domains of separate subunits”.
For the molecule `O=C(O)CC(=O)C(=O)O` [OAA, oxaloacetate], at ATP-citrate lyase (ACLY) [3], the affinity, expressed as Kd, was 15 ± 4 µM.
Consider `O=C(O)CC(O)(CC(=O)O)C(=O)O` [citrate], for which, at ATP-citrate lyase (ACLY) [4], the dissociation constant (Kd) amounted to 3.4 ± 0.5 µM.
In the case of `Nc1ncnc2c1ncn2[C@@H]1O[C@H](COP(=O)(O)OP(=O)(O)O)[C@@H](O)[C@H]1O` [ADP], the “cryo-EM structure (2.85 Å) of mutant mixed with ATP, citrate and CoA” value on ATP-citrate lyase (ACLY) [5] is “ACLY-E599Q–ATP–citrate–CoA structure highlighting the bound ADP (hydrolyzed ATP) and phospho-citryl-CoA intermediate”.

B1: ATP-citrate lyase (ACLY), full length human, wild type, P53396 1-1101 (enzyme)
chain: T1 sequence (P53396 1-1101)
Molecule B1 gave a stoichiometry N in data set [6] of 4.

B2: ATP-citrate lyase (ACLY) E599Q catalytic mutant, full length human (enzyme, UniProt P53396 1-1101, looked up)
chain: T1 sequence (P53396 1-1101) with E599Q
Take B2: the binding result in “cryo-EM structure” was “binds”.

The Kd is a measure of binding affinity in units of concentration. Low readings indicate tighter binding, high ones weaker binding. In general, stoichiometry N refers to a count of units in the complex or per binding partner.
